{"source": "patent US10159249B2", "about": "(BAYER CROPSCIENCE AKTIENGESELLSCHAFT, priority 2013, dated 2018)", "key": {"[1]": {"tested_on": "Digitaria horizontalis", "assay": "Field trial, weed efficacy, post applied", "assay_type": "in vivo", "conditions": "(A) 50 g ai/ha; application at 2 tillers; assessment 14 days after application"}, "[2]": {"target": "PfHPPD-Evo40 (SEQ ID No 27) (Pseudomonas sp., UniProt P80064, A172V/A339E/A53E/D148E/D45N/E105D/E287Q/E300V/E334P/F143Y/G286D/G335S/H150N/H254A/H63N/I158V/I187A/I249V/K92N/L18F/N24G/N280D/S245T/S257K/S301E/T205S/V65I)", "sequence (P80064 1-354 with tags or gaps with the stated changes limits assumed)": "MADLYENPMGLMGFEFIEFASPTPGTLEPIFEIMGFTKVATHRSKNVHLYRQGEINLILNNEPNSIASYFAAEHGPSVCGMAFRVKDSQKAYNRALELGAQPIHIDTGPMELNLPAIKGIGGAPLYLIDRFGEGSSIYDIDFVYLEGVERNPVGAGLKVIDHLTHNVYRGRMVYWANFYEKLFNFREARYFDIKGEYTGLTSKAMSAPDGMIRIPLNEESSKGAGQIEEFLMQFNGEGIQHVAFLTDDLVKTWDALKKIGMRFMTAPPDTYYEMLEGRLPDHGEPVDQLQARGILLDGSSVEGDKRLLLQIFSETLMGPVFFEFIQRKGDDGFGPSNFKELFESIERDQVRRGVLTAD", "assay": "biochemical", "parameters": "species or system Pseudomonas fluorescens"}, "[3]": {"tested_on": "transgenic soybean T1 plants expressing PfHPPD-Evo33", "assay_type": "in vivo", "conditions": "for number of events, herbicide tolerance class 0 (41%-100% damaged leaf area) / number of events, herbicide tolerance class 1 (16%-40% damaged leaf area) / number of events, herbicide tolerance class 2 (6%-15% damaged leaf area) / number of events, herbicide tolerance class 3 (0%-5% damaged leaf area): soybean PfHPPD-Evo33, scored after 21 days"}, "[4]": {"tested_on": "maize transgenic T0 events expressing Axmi428H-Evo41", "assay": "Greenhouse trial, maize T0 plants, leaf area damage", "assay_type": "in vivo", "conditions": "for number of events, herbicide tolerance class 0 (41%-100% damaged leaf area) / number of events, herbicide tolerance class 1 (16%-40% damaged leaf area) / number of events, herbicide tolerance class 2 (6%-15% damaged leaf area) / number of events, herbicide tolerance class 3 (0%-5% damaged leaf area): maize Axmi428H-Evo41, six days after application", "description": "(§1) Regenerated T0 events from tissue culture were transplanted into two inch square pots with synthetic soil (Fafard® Mix) and controlled-released fertilizer (Haifa Multicote™; polymer-coated controlled-release fertilizer, NPK Pro 18-6-12+Micronutrients) and cultivated in the greenhouse (GH) under supplementary high pressure sodium light for 12 days at a maximum of 30° C. during the day and a minimum of 22° C. at night. Fully recovered plants were transferred into five inch square pots filled with synthetic soil and control released fertilizer under the same environmental conditions. […] All herbicide treatments were conducted in a DeVries Tracker Sprayer system with standard application protocols, which are well known in the art. As a spray control T0 events have been sprayed with the adjunvant mixture lacking the herbicide.\n(§2) Table 2 summarizes results of transgenic maize plants expressing mutants of the Pseudomonas fluorescens HPPD protein comprising an E (Glu)->P (Pro) replacement at position 335, a G (Gly)->W (Trp) replacement at position 336, a K (Lys)->A (Ala) replacement at position 339 and an A (Ala)->Q (Gln) replacement at position 340 (named PfHPPDEvo41 and being disclosed under SEQ ID No:16 in PCT/US2013/59598 (WO2014/043435) and being disclosed in present application under SEQ ID No. 29), or a mutated sequence of the Pseudomonas (=Comamonas) testosteroni HPPD protein comprising a E (Glu)->P (Pro) replacement at position 351, a G (Gly)->W (Trp) replacement at position 352, a K (Lys)->A (Ala) replacement at position 355 and an A (Ala)->Q (Gln) replacement at position 356 (named Axmi428H-Evo41 and being disclosed under SEQ ID No 56 in PCT/US2013/59598 (WO2014/043435) and being disclosed in present application as the HPPD protein sequence under SEQ ID No 33) or a mutated sequence of the Pseudomonas agarici HPPD protein comprising a E (Glu)->P (Pro) replacement at position 335, a G (Gly)->W (Trp) replacement at position 336, a K (Lys)->A (Ala) replacement at position 339 and an A (Ala)->Q (Gln) replacement at position 340 (named Axmi309H-EVO41 and being disclosed under SEQ ID No 54 in PCT/US2013/59598 (WO2014/043435) and being disclosed in present application as the HPPD protein sequence under SEQ ID No 37).\n(§3) A rating of “1” was assigned to plants having a moderate tolerance with 16% to 40% damage of total leaf area. A rating of “2” was assigned to plants with good tolerance within the range of 6% to 15% damage of total leaf area."}, "[5]": {"tested_on": "maize transgenic T0 events expressing PfHPPDEvo41", "assay": "Greenhouse trial, maize T0 plants, leaf area damage", "assay_type": "in vivo", "conditions": "for number of events, herbicide tolerance class 0 (41%-100% damaged leaf area) / number of events, herbicide tolerance class 1 (16%-40% damaged leaf area) / number of events, herbicide tolerance class 2 (6%-15% damaged leaf area) / number of events, herbicide tolerance class 3 (0%-5% damaged leaf area): maize PfHPPDEvo41, six days after application", "description": "as §1, §2, §3"}, "[6]": {"target": "PfHPPD-Evo41 (SEQ ID No 29) (Pseudomonas sp., UniProt P80064, A172V/A339Q/A53E/D148E/D45N/E105D/E287Q/E300V/E334P/F143Y/G286D/G335W/H150N/H254A/H63N/I158V/I187A/I249V/K338A/K92N/L18F/N24G/N280D/S245T/S257K/S301E/T205S/V65I)", "sequence (P80064 1-354 with tags or gaps with the stated changes limits assumed)": "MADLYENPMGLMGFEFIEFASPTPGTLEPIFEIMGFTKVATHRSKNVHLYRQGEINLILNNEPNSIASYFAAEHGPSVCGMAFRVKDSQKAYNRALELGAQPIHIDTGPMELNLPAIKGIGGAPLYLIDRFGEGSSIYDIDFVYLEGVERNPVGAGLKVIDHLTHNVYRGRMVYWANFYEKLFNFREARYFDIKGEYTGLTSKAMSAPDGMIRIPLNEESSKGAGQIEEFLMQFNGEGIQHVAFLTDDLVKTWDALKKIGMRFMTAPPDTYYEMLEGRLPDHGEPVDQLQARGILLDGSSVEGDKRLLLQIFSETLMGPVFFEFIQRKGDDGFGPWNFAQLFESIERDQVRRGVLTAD", "assay": "biochemical", "parameters": "species or system Pseudomonas fluorescens"}, "[7]": {"tested_on": "wild type soybean plants (Merlin and Thorne)", "assay_type": "in vivo", "conditions": "21 days after spraying"}, "[8]": {"tested_on": "Ipomoea aristolochiaefolia", "conditions": "application at 6 leaf stage, assessment 14 days after application"}}, "note": "Read-outs that look alike come from different tables or passages of the source."}
{"smiles": "CSc1c(C(F)(F)F)ccc(C(=O)Nc2nnnn2C)c1Cl", "values": [{"measurement": "Efficacy (%) Digitaria horizontalis", "setting": "[1]", "value": 70, "unit": "%"}, {"measurement": "IC50", "setting": "[2]", "value": 251, "unit": "nM"}, {"measurement": "% inhibition at 0.2 μM", "setting": "[2]; 0.2 μM inhibitor, HGD assay", "value": 40, "unit": "%"}, {"measurement": "herbicide tolerance", "setting": "[3]; most soybean T1 plants expressing PfHPPD-Evo33, 25 g AI/ha", "value": "high tolerance"}, {"measurement": "number of events, herbicide tolerance class 0 (41%-100% damaged leaf area)", "setting": "[3]; 6.25 g AI/ha", "value": 1}, {"measurement": "number of events, herbicide tolerance class 1 (16%-40% damaged leaf area)", "setting": "[3]; 6.25 g AI/ha", "value": 0}, {"measurement": "number of events, herbicide tolerance class 2 (6%-15% damaged leaf area)", "setting": "[3]; 6.25 g AI/ha", "value": 0}, {"measurement": "number of events, herbicide tolerance class 3 (0%-5% damaged leaf area)", "setting": "[3]; 6.25 g AI/ha", "value": 11}, {"measurement": "number of events, herbicide tolerance class 0 (41%-100% damaged leaf area)", "setting": "[3]; 25 g AI/ha", "value": 1}, {"measurement": "number of events, herbicide tolerance class 1 (16%-40% damaged leaf area)", "setting": "[3]; 25 g AI/ha", "value": 0}, {"measurement": "number of events, herbicide tolerance class 2 (6%-15% damaged leaf area)", "setting": "[3]; 25 g AI/ha", "value": 2}, {"measurement": "number of events, herbicide tolerance class 3 (0%-5% damaged leaf area)", "setting": "[3]; 25 g AI/ha", "value": 13}, {"measurement": "number of events, herbicide tolerance class 0 (41%-100% damaged leaf area)", "setting": "[3]; 50 g AI/ha", "value": 0}, {"measurement": "number of events, herbicide tolerance class 1 (16%-40% damaged leaf area)", "setting": "[3]; 50 g AI/ha", "value": 4}, {"measurement": "number of events, herbicide tolerance class 2 (6%-15% damaged leaf area)", "setting": "[3]; 50 g AI/ha", "value": 0}, {"measurement": "number of events, herbicide tolerance class 3 (0%-5% damaged leaf area)", "setting": "[3]; 50 g AI/ha", "value": 0}, {"measurement": "number of events, herbicide tolerance class 0 (41%-100% damaged leaf area)", "setting": "[3]; 75 g AI/ha", "value": 0}, {"measurement": "number of events, herbicide tolerance class 1 (16%-40% damaged leaf area)", "setting": "[3]; 75 g AI/ha", "value": 4}, {"measurement": "number of events, herbicide tolerance class 2 (6%-15% damaged leaf area)", "setting": "[3]; 75 g AI/ha", "value": 0}, {"measurement": "number of events, herbicide tolerance class 3 (0%-5% damaged leaf area)", "setting": "[3]; 75 g AI/ha", "value": 0}, {"measurement": "share of tested events with high tolerance (5% or less bleached leaf area)", "setting": "[4]; maize Axmi428H-Evo41 (n=29), 100 g AI/ha", "value": "~70", "unit": "%"}, {"measurement": "number of events, herbicide tolerance class 0 (41%-100% damaged leaf area)", "setting": "[4]; 50 g AI/ha", "value": 0}, {"measurement": "number of events, herbicide tolerance class 1 (16%-40% damaged leaf area)", "setting": "[4]; 50 g AI/ha", "value": 0}, {"measurement": "number of events, herbicide tolerance class 2 (6%-15% damaged leaf area)", "setting": "[4]; 50 g AI/ha", "value": 0}, {"measurement": "number of events, herbicide tolerance class 3 (0%-5% damaged leaf area)", "setting": "[4]; 50 g AI/ha", "value": 7}, {"measurement": "number of events, herbicide tolerance class 0 (41%-100% damaged leaf area)", "setting": "[4]; 100 g AI/ha", "value": 3}, {"measurement": "number of events, herbicide tolerance class 1 (16%-40% damaged leaf area)", "setting": "[4]; 100 g AI/ha", "value": 4}, {"measurement": "number of events, herbicide tolerance class 2 (6%-15% damaged leaf area)", "setting": "[4]; 100 g AI/ha", "value": 1}, {"measurement": "number of events, herbicide tolerance class 3 (0%-5% damaged leaf area)", "setting": "[4]; 100 g AI/ha", "value": 21}, {"measurement": "share of tested events with high tolerance (5% or less bleached leaf area)", "setting": "[5]; maize PfHPPDEvo41 (n=21), 100 g AI/ha", "value": "~70", "unit": "%"}, {"measurement": "number of events, herbicide tolerance class 0 (41%-100% damaged leaf area)", "setting": "[5]; 25 g AI/ha", "value": 6}, {"measurement": "number of events, herbicide tolerance class 1 (16%-40% damaged leaf area)", "setting": "[5]; 25 g AI/ha", "value": 0}, {"measurement": "number of events, herbicide tolerance class 2 (6%-15% damaged leaf area)", "setting": "[5]; 25 g AI/ha", "value": 1}, {"measurement": "number of events, herbicide tolerance class 3 (0%-5% damaged leaf area)", "setting": "[5]; 25 g AI/ha", "value": 28}, {"measurement": "number of events, herbicide tolerance class 0 (41%-100% damaged leaf area)", "setting": "[5]; 50 g AI/ha", "value": 1}, {"measurement": "number of events, herbicide tolerance class 1 (16%-40% damaged leaf area)", "setting": "[5]; 50 g AI/ha", "value": 0}, {"measurement": "number of events, herbicide tolerance class 2 (6%-15% damaged leaf area)", "setting": "[5]; 50 g AI/ha", "value": 2}, {"measurement": "number of events, herbicide tolerance class 3 (0%-5% damaged leaf area)", "setting": "[5]; 50 g AI/ha", "value": 28}, {"measurement": "number of events, herbicide tolerance class 0 (41%-100% damaged leaf area)", "setting": "[5]; 100 g AI/ha", "value": 4}, {"measurement": "number of events, herbicide tolerance class 1 (16%-40% damaged leaf area)", "setting": "[5]; 100 g AI/ha", "value": 0}, {"measurement": "number of events, herbicide tolerance class 2 (6%-15% damaged leaf area)", "setting": "[5]; 100 g AI/ha", "value": 2}, {"measurement": "number of events, herbicide tolerance class 3 (0%-5% damaged leaf area)", "setting": "[5]; 100 g AI/ha", "value": 15}, {"measurement": "IC50", "setting": "[6]", "value": 200, "unit": "nM"}, {"measurement": "% inhibition at 0.2 μM", "setting": "[6]; 0.2 μM inhibitor, HGD assay", "value": 50, "unit": "%"}, {"measurement": "bleaching of the total leaf area", "setting": "[7]; 6.25 g of AI/ha", "value": "45%-50%"}, {"measurement": "damaged leaf area", "setting": "[7]; 25 g of AI/ha", "value": "90-100%"}, {"measurement": "Efficacy (%) Ipomoea aristolochiaefolia", "setting": "[8]; (A) 25 g ai/ha", "value": 10, "unit": "%"}, {"measurement": "Efficacy (%) Ipomoea aristolochiaefolia", "setting": "[8]; (A) 50 g ai/ha", "value": 15, "unit": "%"}]}
